Biological target: SMYD3 (Homo sapiens (Human), UniProt Q9H7B4)
Experiment: SMYD3 biochemical assay (SMYD3 enzyme assay on MEKK2 protein substrate, 3H-SAM scintillation proximity assay)
Details: read-out: SMYD3 Biochem IC50
Summary of the method: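 Detection used scintillation proximity beads to capture ³H-methylated GST-MEKK2 after quench with 100 uM final cold SAM. The reaction was started by SAM/MEKK2 addition after a 30 min RT compound–enzyme preincubation. Enzyme was tag-free full-length human SMYD3 from E. coli, in buffer of 25 mM Tris-Cl pH 8.0, 1 mM TCEP, 0.005% BSG, 0.005% Tween 20.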

Sequence of SMYD3 (Q9H7B4 whole entry): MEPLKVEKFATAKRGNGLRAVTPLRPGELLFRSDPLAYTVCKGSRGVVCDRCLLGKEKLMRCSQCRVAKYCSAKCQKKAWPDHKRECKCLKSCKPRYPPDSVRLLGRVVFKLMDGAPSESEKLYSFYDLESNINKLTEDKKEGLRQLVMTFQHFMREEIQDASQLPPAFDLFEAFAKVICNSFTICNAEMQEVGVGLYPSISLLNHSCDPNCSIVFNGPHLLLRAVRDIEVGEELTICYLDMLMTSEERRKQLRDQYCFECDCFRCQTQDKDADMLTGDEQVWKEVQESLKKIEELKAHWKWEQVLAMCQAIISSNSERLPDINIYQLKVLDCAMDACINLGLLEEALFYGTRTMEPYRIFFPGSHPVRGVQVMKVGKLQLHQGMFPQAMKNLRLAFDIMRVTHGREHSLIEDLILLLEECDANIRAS

IC50 [µM]	Structure (SMILES)
5.02	NCCC(=O)N[C@H]1CC[C@H](NC(=O)c2cc3cccc(O)c3cc2O)CC1 [compound 479, N-((1r,4r)-4-(3-aminopropanamido)cyclohexyl)-3,5-dihydroxy-2-naphthamide]
> 100	N[C@H]1CC[C@H](NC(=O)c2ncccc2O)CC1 [compound 480, N-((1r,4r)-4-aminocyclohexyl)-3-hydroxypicolinamide]
15.1	NCCC(=O)N[C@H]1CC[C@H](NC(=O)C2=NNC(=O)CC2)CC1 [compound 481, N-((1r,4r)-4-(3-aminopropanamido)cyclohexyl)-6-oxo-1,4,5,6-tetrahydropyridazine-3-carboxamide]
71.1	NCCC(=O)N[C@H]1CC[C@H](NC(=O)/C=C/c2c[nH]cn2)CC1 [compound 482, (E)-N-((1r,4r)-4-(3-aminopropanamido)cyclohexyl)-3-(1H-imidazol-4-yl)acrylamide]
10.2	NCCC(=O)N1CCC(CC(=O)N2CCC3NC(=O)CC3C2)CC1 (stereo not drawn) [compound 483, 5-(2-(1-(3-aminopropanoyl)piperidin-4-yl)acetyl)octahydro-2H-pyrrolo[3,2-c]pyridin-2-one]
85.7	N[C@H]1CC[C@H](NC(=O)c2noc(C3CC3)n2)CC1 [compound 484, N-((1r,4r)-4-aminocyclohexyl)-5-cyclopropyl-1,2,4-oxadiazole-3-carboxamide]
12.9	NCCC(=O)N[C@H]1CC[C@H](NC(=O)c2noc(C3CC3)n2)CC1 [compound 485, N-((1r,4r)-4-(3-aminopropanamido)cyclohexyl)-5-cyclopropyl-1,2,4-oxadiazole-3-carboxamide]
18.8	CC(C)(CNC(=O)CN)CNS(=O)(=O)c1ccc2c(c1)CC(=O)N2 [compound 486, 2-amino-N-(2,2-dimethyl-3-((2-oxoindoline)-5-sulfonamido)propyl)acetamide]
37.9	N[C@H]1CC[C@H](NC(=O)c2ccc3c(c2)CNC3=O)CC1 [compound 487, N-((1r,4r)-4-aminocyclohexyl)-1-oxoisoindoline-5-carboxamide]
14.1	CC(NC(=O)c1ccc2c(c1)C(=O)C(=O)N2)C1CCN(C(=O)[C@H](C)N)CC1 (stereo partly drawn) [compound 488, N-(1-(1-(L-alanyl)piperidin-4-yl)ethyl)-2,3-dioxoindoline-5-carboxamide]
31.6	Cc1nc2ccccc2c(C(=O)NC(C)C2CCN(C(=O)[C@H](C)N)CC2)c1N (stereo partly drawn) [compound 489, N-(1-(1-(L-alanyl)piperidin-4-yl)ethyl)-3-amino-2-methylquinoline-4-carboxamide]
1.59	N[C@H]1CC[C@H](NC(=O)c2cc3c(cc2Cl)NC(=O)C3)CC1 [compound 492, N-((1r,4r)-4-aminocyclohexyl)-6-chloro-2-oxoindoline-5-carboxamide]
> 50	N[C@H]1CC[C@H](NC(=O)c2cncnc2O)CC1 [compound 493, N-((1r,4r)-4-aminocyclohexyl)-4-hydroxypyrimidine-5-carboxamide]
> 100	CC(NC(=O)/C=C/c1c[nH]cn1)C1CCN(C(=O)[C@H](C)N)CC1 (stereo partly drawn) [compound 494, (E)-N-(1-(1-(L-alanyl)piperidin-4-yl)ethyl)-3-(1H-imidazol-4-yl)acrylamide]
> 100	N[C@H]1CC[C@H](NC(=O)/C=C/c2c[nH]cn2)CC1 [compound 495, (E)-N-((1r,4r)-4-aminocyclohexyl)-3-(1H-imidazol-4-yl)acrylamide]
6.57	CC(NC(=O)c1cc2cn[nH]c2cn1)C1CCN(C(=O)[C@H](C)N)CC1 (stereo partly drawn) [compound 496, N-(1-(1-(L-alanyl)piperidin-4-yl)ethyl)-1H-pyrazolo[3,4-c]pyridine-5-carboxamide]
35.7	N[C@H]1CC[C@H](NC(=O)c2cc3cn[nH]c3cn2)CC1 [compound 497, N-((1r,4r)-4-aminocyclohexyl)-1H-pyrazolo[3,4-c]pyridine-5-carboxamide]

IC50 [µM]	Structure (SMILES)
51	CC(NC(=O)c1nc2ccc(F)cc2s1)C1CCN(C(=O)[C@H](C)N)CC1 (stereo partly drawn) [compound 498, N-(1-(1-(L-alanyl)piperidin-4-yl)ethyl)-6-fluorobenzo[d]thiazole-2-carboxamide]
86.3	NCCC(=O)N[C@H]1CC[C@H](NC(=O)c2nc3ccc(F)cc3s2)CC1 [compound 499, N-((1r,4r)-4-(3-aminopropanamido)cyclohexyl)-6-fluorobenzo[d]thiazole-2-carboxamide]
> 100	N[C@H]1CC[C@H](NC(=O)c2nc3ccc(F)cc3s2)CC1 [compound 500, N-((1r,4r)-4-aminocyclohexyl)-6-fluorobenzo[d]thiazole-2-carboxamide]
50	NC(=O)Cn1cc(C(=O)N[C@H]2CC[C@H](N)CC2)nn1 [compound 501, 1-(2-amino-2-oxoethyl)-N-((1r,4r)-4-aminocyclohexyl)-1H-1,2,3-triazole-4-carboxamide]
> 100	N[C@H]1CC[C@H](NC(=O)c2ncc[nH]2)CC1 [compound 502, N-((1r,4r)-4-aminocyclohexyl)-1H-imidazole-2-carboxamide]
> 100	NCCC(=O)N[C@H]1CC[C@H](NC(=O)c2ccc3c(c2)CNC3=O)CC1 [compound 503, N-((1r,4r)-4-(3-aminopropanamido)cyclohexyl)-1-oxoisoindoline-5-carboxamide]
5.38	NCCC(=O)N[C@H]1CC[C@H](NC(=O)c2ccc3c(c2)C(=O)C(=O)N3)CC1 [compound 504, N-((1r,4r)-4-(3-aminopropanamido)cyclohexyl)-2,3-dioxoindoline-5-carboxamide]
42.3	NC1CCC(NC(=O)c2cccc3c2NC(=O)C3)CC1 (stereo not drawn) [compound 506, N-(4-aminocyclohexyl)-2-oxoindoline-7-carboxamide]
> 100	Cn1ncnc1C(=O)N[C@H]1CC[C@H](N)CC1 [compound 507, N-((1r,4r)-4-aminocyclohexyl)-1-methyl-1H-1,2,4-triazole-5-carboxamide]
> 50	Nc1n[nH]c(C(=O)N[C@H]2CC[C@H](N)CC2)n1 [compound 508, 3-amino-N-((1r,4r)-4-aminocyclohexyl)-1H-1,2,4-triazole-5-carboxamide]
> 50	CC(NC(=O)c1cncnc1O)C1CCN(C(=O)[C@H](C)N)CC1 (stereo partly drawn) [compound 509, N-(1-(1-(L-alanyl)piperidin-4-yl)ethyl)-4-hydroxypyrimidine-5-carboxamide]
> 50	NCCC(=O)N[C@H]1CC[C@H](NC(=O)c2cncnc2O)CC1 [compound 510, N-((1r,4r)-4-(3-aminopropanamido)cyclohexyl)-4-hydroxypyrimidine-5-carboxamide]
> 50	CC(NC(=O)c1ncccc1O)C1CCN(C(=O)[C@H](C)N)CC1 (stereo partly drawn) [compound 511, N-(1-(1-(L-alanyl)piperidin-4-yl)ethyl)-3-hydroxypicolinamide]
> 50	NCCC(=O)N[C@H]1CC[C@H](NC(=O)c2ncccc2O)CC1 [compound 512, N-((1r,4r)-4-(3-aminopropanamido)cyclohexyl)-3-hydroxypicolinamide]
> 50	CC(NC(=O)c1cncc(O)c1)C1CCN(C(=O)[C@H](C)N)CC1 (stereo partly drawn) [compound 513, N-(1-(1-(L-alanyl)piperidin-4-yl)ethyl)-5-hydroxynicotinamide]
> 50	NCCC(=O)N[C@H]1CC[C@H](NC(=O)c2cncc(O)c2)CC1 [compound 514, N-((1r,4r)-4-(3-aminopropanamido)cyclohexyl)-5-hydroxynicotinamide]

Reference: patent US10266526B2, “Substituted 1,2,3-triazoles as SMYD inhibitors for treating cancer” (EPIZYME, INC., priority 2014, dated 2019)
